Test results taken from PMC3285450 (Journal of Medicinal Chemistry, 2010).

Assays:
[1] = pharmacokinetic screening by oral cassette dosing in mice; details: blood pharmacokinetic profile, Figure S3
in vivo = details: male, CFW, mouse, po, 5 mg/kg
Human sEH = molecular target: T1, Human sEH (Homo sapiens, UniProt P34913); details: for improved potency over compound 40: versus compound 40, reached the LOQ of the in vitro assay
T1 sequence (P34913 1-555): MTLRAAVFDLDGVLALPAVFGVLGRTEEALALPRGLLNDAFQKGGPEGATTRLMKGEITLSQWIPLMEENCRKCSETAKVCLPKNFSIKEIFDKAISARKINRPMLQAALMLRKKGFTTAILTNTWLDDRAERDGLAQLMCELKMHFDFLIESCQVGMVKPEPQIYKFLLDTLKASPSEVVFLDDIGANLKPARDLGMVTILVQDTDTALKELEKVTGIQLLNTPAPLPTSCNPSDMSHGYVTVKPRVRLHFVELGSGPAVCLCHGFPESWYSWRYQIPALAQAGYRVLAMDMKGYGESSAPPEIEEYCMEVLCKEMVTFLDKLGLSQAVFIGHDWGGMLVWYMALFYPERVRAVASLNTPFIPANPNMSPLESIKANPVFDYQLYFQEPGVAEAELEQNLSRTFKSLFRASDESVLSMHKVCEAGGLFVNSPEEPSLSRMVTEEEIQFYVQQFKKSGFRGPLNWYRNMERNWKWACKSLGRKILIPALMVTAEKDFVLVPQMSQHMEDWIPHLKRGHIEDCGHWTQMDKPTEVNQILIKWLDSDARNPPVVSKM

murine sEH = molecular target: T2, murine sEH (Mus musculus, UniProt P34914); experiment: fluorescent
T2 sequence (P34914 1-554): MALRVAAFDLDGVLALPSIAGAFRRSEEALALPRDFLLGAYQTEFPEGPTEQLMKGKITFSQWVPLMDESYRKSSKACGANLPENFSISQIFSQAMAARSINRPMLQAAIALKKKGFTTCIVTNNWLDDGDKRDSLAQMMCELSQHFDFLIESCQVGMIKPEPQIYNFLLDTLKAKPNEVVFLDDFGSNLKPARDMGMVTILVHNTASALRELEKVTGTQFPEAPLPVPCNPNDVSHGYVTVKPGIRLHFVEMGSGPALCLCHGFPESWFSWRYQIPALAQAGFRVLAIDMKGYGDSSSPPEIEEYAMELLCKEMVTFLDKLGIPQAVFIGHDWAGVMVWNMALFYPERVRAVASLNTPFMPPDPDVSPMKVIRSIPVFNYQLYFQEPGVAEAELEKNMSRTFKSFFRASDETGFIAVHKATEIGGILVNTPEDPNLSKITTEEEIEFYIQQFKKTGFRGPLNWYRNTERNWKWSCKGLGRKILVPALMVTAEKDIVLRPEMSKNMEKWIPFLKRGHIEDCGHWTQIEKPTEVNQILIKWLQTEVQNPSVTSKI

[2] = test system: carrageenan induced inflammatory pain; assay type: in vivo, Male Sprague-Dawley rats; details: for reversal of carrageenan induced pain (mechanical withdrawal threshold): rats, intraplantar, 3 hr after carrageenan, sEHi 10 ng/paw, morphine 10,000 ng/paw, n=6
hydrolytic stability = assay type: physicochemical

CC(=O)N1CCC(NC(=O)NC23CC4CC(CC(C4)C2)C3)CC1 [APAU]
AUC [1]: small | halflife [1]: very short

O=C(O)CCCCCCCCCCCNC(=O)NC12CC3CC(CC(C3)C1)C2 [AUDA, 12-(3-adamantane-1-yl-ureido)dodecanoic acid, reference compound]
AUC(0-t) (in vivo): 0.05 µM·h

CCC(=O)N1CCC(NC(=O)Nc2ccccc2)CC1 [Compound 7]
drop in potency against the human enzyme versus cyclohexyl compound 4 (Human sEH; versus compound 4): 11 fold

CCC(=O)N1CCC(NC(=O)Nc2cccc(F)c2)CC1 [Compound 28]
lower IC50 than para-fluorophenyl 24, human enzyme (Human sEH; versus compound 24): 2 fold | lower IC50 than para-fluorophenyl 24, murine enzyme (murine sEH; versus compound 24): 5 fold

O=C(Nc1ccc(OC(F)(F)F)cc1)NC1CCN(C(=O)C2CC2)CC1 [Compound 52, 1-(1-(cyclopropanecarbonyl)piperidin-4-yl)-3-(4-(trifluoromethoxy)phenyl)urea]
increase in potency compared to morphine, reducing hyperalgesia ([2]; mechanical withdrawal threshold, carrageenan model): 1000 fold | reversal of carrageenan induced pain (mechanical withdrawal threshold) [2]: significantly reversed carrageenan induced pain | increase in potency over adamantane analogue 2 (Human sEH; versus compound 2): 7 fold | improved potency over compound 40 (Human sEH): approximately 9 fold | AUC(0-t) (in vivo): 164 µM·h | Cmax (in vivo): 8.9 µM | Tmax (in vivo): 3.17 h | half-life (in vivo): 19.7 h | improvement from AUDA, exposure in murine blood and murine potency data (murine sEH; Figure S5, versus AUDA): 10^5

O=C(Nc1ccc(OC(F)(F)F)cc1)NC1CCN(C(=O)C(F)(F)F)CC1 [Compound 53]
hydrolytic stability (hydrolytic stability): hydrolytic instability | improved potency over compound 40 (Human sEH): approximately 9 fold

CN1CC[C@]23c4c5ccc(O)c4O[C@H]2[C@@H](O)C=C[C@H]3[C@H]1C5 [morphine, reference compound]
reversal of carrageenan induced pain (mechanical withdrawal threshold) [2]: significantly reversed carrageenan induced pain
